In patent US20060270684A1, “Crystalline forms of ziprasidone mesylate” (priority 2005, published 2006):
Structures can show the parent of a compound that is named as a salt.

What was measured:
[1] = Water absorption of Form I at room temperature for 7 days under various relative humidity conditions; assay type: physicochemical
Protocol: Copper radiation of 1.5418 Å was used. A round aluminum sample holder with zero background was used. All peak positions are within ±0.2 degrees two theta. Karl Fisher analysis was performed according to the known art.

[2] = Transformations by heat (XRD and Karl Fisher after heating); assay type: physicochemical
Protocol: (§1) X-Ray powder diffraction data were obtained using a SCINTAG powder X-Ray diffractometer model X'TRA equipped with a solid state detector. Copper radiation of 1.5418 Å was used. A round aluminum sample holder with zero background was used. All peak positions are within ±0.2 degrees two theta.
(§2) Karl Fisher analysis was performed according to the known art.

[3] = Water absorption of Form IX after exposure for 10 days to 100% relative humidity at room temperature; assay type: physicochemical
Protocol: The present invention provides non-hygroscopic crystalline form of ziprasidone mesylate Form IX. Form IX was tested for water absorption after exposure for 10 days to 100% relative humidity at room temperature, as summarized in the following table:
as §2
Ziprasidone mesylate Form IX was exposed to 100% humidity at room temperature for 10 days. Before the exposure the water content was measured to be about 4.8%, while after the exposure the water content was measure to be about 5.0% water. The difference between water content before and after the exposure to 100% humidity is 0.2%.

[4] = Water absorption of Form XVIII, 7 days at 30° C. under humidity; assay type: physicochemical
Protocol: as §1, §2

[5] = aqueous medium at ambient temperature; cited from earlier work
[6] = 60% RH, room temperature, 7 days
[7] = 80% RH, room temperature, 7 days
[8] = 100% RH, room temperature, 7 days
[9] = 100% humidity at room temperature for 10 days
[10] = heated at TEMP. 90, 30 min, mesylate dihydrate
[11] = heated at TEMP. 120, 30 min, mesylate dihydrate

O=C1Cc2cc(CCN3CCN(c4nsc5ccccc45)CC3)c(Cl)cc2N1 [Form I, ziprasidone mesylate]
crystal form (by XRD) [1, 6]: Form I
water content (by Karl Fisher) [1, 6]: 2.5%
crystal form (by XRD) [1, 7]: Form I
water content (by Karl Fisher) [1, 7]: 3.1%
crystal form (by XRD) [1, 8]: Form I
water content (by Karl Fisher) [1, 8]: 4.6%
crystal form (by XRD) ([1]; Initial): Form I
water content (by Karl Fisher) ([1]; Initial): 2.3%
stability when tested for water absorption ([1]; room temperature, 7 days, various relative humidity conditions): stable

O=C1Cc2cc(CCN3CCN(c4nsc5ccccc45)CC3)c(Cl)cc2N1 [Form II, ziprasidone mesylate]
RESULT (XRD) ([2]; heated at TEMP. 90, 30 min): Form II

O=C1Cc2cc(CCN3CCN(c4nsc5ccccc45)CC3)c(Cl)cc2N1 [Form IX, ziprasidone mesylate]
water content (by Karl Fisher) ([3]; 100% RH at RT, 10 days): 5%
difference between water content before and after the exposure [3, 9]: 0.2%
water content after the exposure [3, 9]: about 5.0%
water content (by Karl Fisher) ([3]; Initial): 4.7%
water content before the exposure ([3]; before exposure to 100% humidity): about 4.8%
hygroscopicity ([3]; non-hygroscopic = does not absorb more than 0.2% of water at 80% humidity, 25° C., 24 hours): non-hygroscopic

O=C1Cc2cc(CCN3CCN(c4nsc5ccccc45)CC3)c(Cl)cc2N1 [Form XVIII, ziprasidone mesylate]
Water content (by KF) ([4]; 80% RH, 7 days at 30° C.): 8.2%
crystal form (by XRD) ([4]; 80% RH, 7 days at 30° C.): Trihydrate
crystal form (by XRD) ([4]; 80% RH, 7 days at 30° C., listed as form XVIII): transformation to trihydrate
water content determined by Karl Fisher ([4]; 80% humidity for 7 days at 30° C.): about 8.2%
Water content (by KF) ([4]; 100% RH, 7 days at 30° C.): 9.1%
crystal form (by XRD) ([4]; 100% RH, 7 days at 30° C.): Trihydrate
Water content (by KF) ([4]; Initial): 2%
crystal form (by XRD) ([4]; Initial): XVIII

ziprasidone mesylate dihydrate [Dihydrate Lath]
K.F. [2, 10]: 3.1%
RESULT (XRD) [2, 10]: Dihydrate Lath
K.F. [2, 11]: 0.4%
RESULT (XRD) [2, 11]: Dihydrate Lath
K.F. ([2]; heated at TEMP. 140, 30 min): 0.3%
RESULT (XRD) ([2]; heated at TEMP. 140, 30 min): Dihydrate Lath
K.F. ([2]; heated at TEMP. 160, 30 min): 0.2%
RESULT (XRD) ([2]; heated at TEMP. 160, 30 min, listed as Dihydrate lath, mesylate dihydrate): Transformation from dihydrate lath to Form VI
RESULT (XRD) ([2]; heated at TEMP. 160, 30 min, mesylate dihydrate): Form VI
K.F. ([2]; t = 0 (before heating)): (t = 0 6.5%)

ziprasidone mesylate dihydrate [Dihydrate needle]
K.F. [2, 10]: 3%
RESULT (XRD) [2, 10]: Dihydrate needle
K.F. [2, 11]: 0.5%
RESULT (XRD) [2, 11]: Dihydrate needle

ziprasidone mesylate trihydrate
thermodynamic stability among the four crystalline forms of ziprasidone mesylate [5]: most thermodynamically stable form
